Measurements taken from patent publication US12410208B2, “(2-acetamidyl)thio-beta-D-galactopyranoside derivatives” (Idorsia Pharmaceuticals Ltd, priority 2020, dated 2025).
Where two headings read alike, the source gives them in different places.

Key:
[1] = molecular target: biotinylated human Gal-3 (hGal-3) (Homo sapiens, UniProt P17931); assay: Competitive binding assay: biotinylated hGal-3 binding to microplate-adsorbed asialofetuin (ASF), spectrophotometric
How it was run: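 Serially diluted compounds competed with asialofetuin on the plate for biotinylated human Gal-3 during a 3 h incubation at 4° C. Streptavidin-peroxidase with ABTS gave the spectrophotometric signal. IC50 values were averaged over repeat runs.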

[2] = molecular target: human Gal-1 (hGal-1) (Homo sapiens, UniProt P09382); assay: Competitive binding assay: biotinylated hGal-1 binding to microplate-adsorbed asialofetuin (ASF), spectrophotometric; details: hGal-1 binding to asialofetuin; Table 15; R and S epimers of selected Examples also listed; read-out: IC50 (Galectin-1 inhibition)
How it was run: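 Spectrophotometric competition readout with ABTS after streptavidin-peroxidase (80 ng/mL, 1 h, 4 °C) detection of bound biotinylated hGal-1.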

[3] = Gal-3 inhibition, Table 5, read-out: IC50
[4] = Table 10, hGal-3, read-out: IC50 (Gal-3 inhibition)
[5] = Table 9, hGal-3, read-out: IC50 (Gal-3 inhibition)

Sequence of biotinylated human Gal-3 (hGal-3) (P17931 whole entry): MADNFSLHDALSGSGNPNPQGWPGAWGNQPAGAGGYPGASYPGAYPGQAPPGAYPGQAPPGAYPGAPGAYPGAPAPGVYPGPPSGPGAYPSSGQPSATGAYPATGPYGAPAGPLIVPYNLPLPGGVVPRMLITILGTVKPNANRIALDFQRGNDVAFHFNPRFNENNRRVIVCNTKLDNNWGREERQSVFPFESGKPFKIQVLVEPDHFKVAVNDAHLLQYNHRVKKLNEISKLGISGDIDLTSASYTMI
Sequence of human Gal-1 (hGal-1) (P09382 whole entry): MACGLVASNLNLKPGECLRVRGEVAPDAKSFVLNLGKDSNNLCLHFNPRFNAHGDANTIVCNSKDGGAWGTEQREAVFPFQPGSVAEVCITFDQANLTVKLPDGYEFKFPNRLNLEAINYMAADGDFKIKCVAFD

Row | IC50 [2] [nM] | IC50 [1, 5] [nM] | Structure (SMILES) | further results
1 | 50 | – | CN(CC1CC1)C(=O)[C@@H](S[C@@H]1O[C@H](CO)[C@H](O)[C@H](n2cc(-c3cc(F)c(F)c(F)c3)nn2)[C@H]1O)C1(O)CCOCC1 [Example 2.41.218S., (S)-N-(Cyclopropylmethyl)-2-(((2S,3R,4S,5R,6R)-3,5-dihydroxy-6-(hydroxymethyl)-4-(4-(3,4,5-trifluorophenyl)-1H-1,2,3-triazol-1-yl)tetrahydro-2H-pyran-2-yl)thio)-2-(4-hydroxytetrahydro-2H-pyran-4-yl)-N-methylacetamide] | IC50 ([1]; Gal-3 inhibition, Table 4, read-out: IC50): 20 nM
2 | 210 | – | CN(CC(F)(F)F)C(=O)C(S[C@@H]1O[C@H](CO)[C@H](O)[C@H](n2cc(-c3cc(F)c(F)c(F)c3)nn2)[C@H]1O)C1(O)CCOCC1 (stereo partly drawn) [Example 2.41.219., 2-(((2S,3R,4S,5R,6R)-3,5-Dihydroxy-6-(hydroxymethyl)-4-(4-(3,4,5-trifluorophenyl)-1H-1,2,3-triazol-1-yl)tetrahydro-2H-pyran-2-yl)thio)-2-(4-hydroxytetrahydro-2H-pyran-4-yl)-N-methyl-N-(2,2,2-trifluoroethyl)acetamide] | IC50 [1, 3]: 110 nM
3 | 30 | – | CN(C(=O)C(S[C@@H]1O[C@H](CO)[C@H](O)[C@H](n2cc(-c3cc(F)c(F)c(F)c3)nn2)[C@H]1O)C1(O)CCOCC1)C1CCC1 (some centres unmarked) [Example 2.41.220.] | IC50 [1, 4]: 50 nM
4 | 80 | 110 | CN(C(=O)C(S[C@@H]1O[C@H](CO)[C@H](O)[C@H](n2cc(-c3cc(F)c(F)c(F)c3)nn2)[C@H]1O)C1(O)CCOCC1)c1ccccc1 (some centres unmarked) [Example 2.41.231.] | –
5 | 8260 | 3440 | CN(C(=O)[C@H](S[C@@H]1O[C@H](CO)[C@H](O)[C@H](n2cc(-c3cc(F)c(F)c(F)c3)nn2)[C@H]1O)C1(O)CCOCC1)c1ccccc1 [Example 2.41.231R.] | –
6 | 50 | 70 | CN(C(=O)[C@@H](S[C@@H]1O[C@H](CO)[C@H](O)[C@H](n2cc(-c3cc(F)c(F)c(F)c3)nn2)[C@H]1O)C1(O)CCOCC1)c1ccccc1 [Example 2.41.231S.] | –
7 | 60 | 90 | CCN(C(=O)C(S[C@@H]1O[C@H](CO)[C@H](O)[C@H](n2cc(-c3cc(F)c(F)c(F)c3)nn2)[C@H]1O)C1(O)CCOCC1)c1ccccc1 (stereo partly drawn) [Example 2.41.232., 2-(((2S,3R,4S,5R,6R)-3,5-Dihydroxy-6-(hydroxymethyl)-4-(4-(3,4,5-trifluorophenyl)-1H-1,2,3-triazol-1-yl)tetrahydro-2H-pyran-2-yl)thio)-N-ethyl-2-(4-hydroxytetrahydro-2H-pyran-4-yl)-N-phenylacetamide] | –
8 | 7100 | 7240 | CO[C@@H]1[C@@H](n2cc(-c3cc(F)c(F)c(F)c3)nn2)[C@@H](O)[C@@H](CO)O[C@H]1S[C@@H](C(=O)N(C)c1ccccn1)C1(O)CCC(F)(F)CC1 [Example 2.41.233R.I.] | –
9 | 9800 | 8500 | CN(C(=O)[C@H](S[C@@H]1O[C@H](CO)[C@H](O)[C@H](n2cc(-c3cc(F)c(F)c(F)c3)nn2)[C@H]1O)C1(O)CCOCC1)c1ccccn1 [Example 2.41.233R.] | –
10 | 30 | 50 | CO[C@@H]1[C@@H](n2cc(-c3cc(F)c(F)c(F)c3)nn2)[C@@H](O)[C@@H](CO)O[C@H]1S[C@H](C(=O)N(C)c1ccccn1)C1(O)CCC(F)(F)CC1 [Example 2.41.233S.I.] | –
11 | 30 | 40 | CN(C(=O)[C@@H](S[C@@H]1O[C@H](CO)[C@H](O)[C@H](n2cc(-c3cc(F)c(F)c(F)c3)nn2)[C@H]1O)C1(O)CCOCC1)c1ccccn1 [Example 2.41.233S.] | –
12 | 10900 | 7800 | CN(C(=O)[C@H](S[C@@H]1O[C@H](CO)[C@H](O)[C@H](n2cc(-c3cc(F)c(F)c(F)c3)nn2)[C@H]1O)C1(O)CCOCC1)c1cccnc1 [Example 2.41.234R] | –
13 | 100 | 100 | CN(C(=O)[C@@H](S[C@@H]1O[C@H](CO)[C@H](O)[C@H](n2cc(-c3cc(F)c(F)c(F)c3)nn2)[C@H]1O)C1(O)CCOCC1)c1cccnc1 [Example 2.41.234S.] | –
14 | 90 | – | CN(C(=O)C(S[C@@H]1O[C@H](CO)[C@H](O)[C@H](n2cc(-c3cc(F)c(F)c(F)c3)nn2)[C@H]1O)C1(O)CCOCC1)C1COC1 (stereo partly drawn) [Example 2.41.235., 2-(((2S,3R,4S,5R,6R)-3,5-Dihydroxy-6-(hydroxymethyl)-4-(4-(3,4,5-trifluorophenyl)-1H-1,2,3-triazol-1-yl)tetrahydro-2H-pyran-2-yl)thio)-2-(4-hydroxytetrahydro-2H-pyran-4-yl)-N-methyl-N-(oxetan-3-yl)acetamide] | IC50 [1, 3]: 60 nM
15 | 6540 | – | CN(C(=O)[C@H](S[C@@H]1O[C@H](CO)[C@H](O)[C@H](n2cc(-c3cc(F)c(F)c(F)c3)nn2)[C@H]1O)C1(O)CCOCC1)C1COC1 [Example 2.41.235R., (R)-2-(((2S,3R,4S,5R,6R)-3,5-Dihydroxy-6-(hydroxymethyl)-4-(4-(3,4,5-trifluorophenyl)-1H-1,2,3-triazol-1-yl)tetrahydro-2H-pyran-2-yl)thio)-2-(4-hydroxytetrahydro-2H-pyran-4-yl)-N-methyl-N-(oxetan-3-yl)acetamide] | IC50 [1, 3]: 2400 nM
16 | 90 | – | CN(C(=O)[C@@H](S[C@@H]1O[C@H](CO)[C@H](O)[C@H](n2cc(-c3cc(F)c(F)c(F)c3)nn2)[C@H]1O)C1(O)CCOCC1)C1COC1 [Example 2.41.235S., (S)-2-(((2S,3R,4S,5R,6R)-3,5-Dihydroxy-6-(hydroxymethyl)-4-(4-(3,4,5-trifluorophenyl)-1H-1,2,3-triazol-1-yl)tetrahydro-2H-pyran-2-yl)thio)-2-(4-hydroxytetrahydro-2H-pyran-4-yl)-N-methyl-N-(oxetan-3-yl)acetamide] | IC50 [1, 3]: 40 nM
17 | 9900 | – | CCN(CC1CC1)C(=O)C(S[C@@H]1O[C@H](CO)[C@H](O)[C@H](n2cc(-c3cc(F)c(F)c(F)c3)nn2)[C@H]1O)C1(O)CCOCC1 (stereo partly drawn) [Example 2.41.236., N-(Cyclopropylmethyl)-2-(((2S,3R,4S,5R,6R)-3,5-dihydroxy-6-(hydroxymethyl)-4-(4-(3,4,5-trifluorophenyl)-1H-1,2,3-triazol-1-yl)tetrahydro-2H-pyran-2-yl)thio)-N-ethyl-2-(4-hydroxytetrahydro-2H-pyran-4-yl)acetamide] | IC50 [1, 3]: 4470 nM
18 | 20 | – | CCN(C(=O)C(S[C@@H]1O[C@H](CO)[C@H](O)[C@H](n2cc(-c3cc(F)c(F)c(F)c3)nn2)[C@H]1O)C1(O)CCOCC1)C1CCC1 (some centres unmarked) [Example 2.41.237.] | IC50 [1, 4]: 30 nM
19 | 250 | – | CO[C@@H]1[C@@H](n2cc(-c3cc(F)c(F)c(F)c3)nn2)[C@@H](O)[C@@H](CO)O[C@H]1SC(C(=O)N(C)C)C1(O)CCC(F)(F)CC1 (stereo partly drawn) [Example 2.44.201.I., 2-(4,4-Difluoro-1-hydroxycyclohexyl)-2-(((2S,3R,4S,5R,6R)-5-hydroxy-6-(hydroxymethyl)-3-methoxy-4-(4-(3,4,5-trifluorophenyl)-1H-1,2,3-triazol-1-yl)tetrahydro-2H-pyran-2-yl)thio)-N,N-dimethylacetamide] | IC50 ([1]; Table 12, hGal-3, read-out: IC50 (Gal-3 inhibition)): 60 nM
